Several values for one entry are separate records, joined by “and”; a condition that tells them apart may be missing. Identical values can stand only once. Toxic doses and inconclusive results are not listed.
Test system: BDF1 mice, P388 leukemia ip, median survival T/C
Assay: NCI In Vivo Anticancer Drug Screen. Data for tumor model P388 Leukemia (intraperitoneal) in B6D2F1 (BDF1) mice
Settings: endpoint: median survival time, higher = longer survival
Procedure, shortened: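 Compound-treated tumour-bearing mice were compared with vehicle-treated controls. Survival was recorded, and the value is the treated-group measurement divided by the control-group measurement (T/C).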

[1] = dose: 50.0 mg/kg/injection, schedule: Q04DX003 (ip), vehicle: Klucel (hydroxypropylcellulose) (HPC)
[2] = dose: 100.0 mg/kg/injection, schedule: Q04DX003 (ip), vehicle: Klucel (hydroxypropylcellulose) (HPC)
[3] = dose: 100.0 mg/kg/injection, schedule: Q01DX001 (ip), vehicle: Klucel (hydroxypropylcellulose) (HPC)
[4] = dose: 200.0 mg/kg/injection, schedule: Q01DX001 (ip), vehicle: Klucel (hydroxypropylcellulose) (HPC)
[5] = dose: 400.0 mg/kg/injection, schedule: Q01DX001 (ip), vehicle: Klucel (hydroxypropylcellulose) (HPC)
[6] = dose: 25.0 mg/kg/injection, schedule: Q01DX009 (ip), vehicle: saline with Tween-80
[7] = dose: 50.0 mg/kg/injection, schedule: Q01DX009 (ip), vehicle: saline with Tween-80
[8] = dose: 100.0 mg/kg/injection, schedule: Q01DX009 (ip), vehicle: saline with Tween-80
[9] = dose: 200.0 mg/kg/injection, schedule: Q01DX009 (ip), vehicle: saline with Tween-80
[10] = dose: 100.0 mg/kg/injection, schedule: Q01DX009 (ip), vehicle: Klucel (hydroxypropylcellulose) (HPC)
[11] = dose: 200.0 mg/kg/injection, schedule: Q01DX009 (ip), vehicle: Klucel (hydroxypropylcellulose) (HPC)
[12] = dose: 37.5 mg/kg/injection, schedule: Q01DX009 (ip), vehicle: saline with Tween-80
[13] = dose: 100.0 mg/kg/injection, schedule: Q04DX003 (ip), vehicle: saline with Tween-80
[14] = dose: 200.0 mg/kg/injection, schedule: Q04DX003 (ip), vehicle: saline with Tween-80
[15] = dose: 400.0 mg/kg/injection, schedule: Q04DX003 (ip), vehicle: saline with Tween-80
[16] = dose: 50.0 mg/kg/injection, schedule: Q01DX009 (ip), vehicle: saline
[17] = dose: 100.0 mg/kg/injection, schedule: Q01DX009 (ip), vehicle: saline
[18] = dose: 100.0 mg/kg/injection, schedule: Q01DX001 (ip), vehicle: saline
[19] = dose: 400.0 mg/kg/injection, schedule: Q01DX009 (ip), vehicle: saline with Tween-80
[20] = dose: 200.0 mg/kg/injection, schedule: Q04DX003 (ip), vehicle: Klucel (hydroxypropylcellulose) (HPC)
[21] = dose: 200.0 mg/kg/injection, schedule: Q01DX009 (ip), vehicle: saline

With `COc1ccc2c3csc4ccccc4c-3nc2c1` the T/C (dose: 12.5 mg/kg/injection, schedule: Q01DX009 (ip), vehicle: Klucel (hydroxypropylcellulose) (HPC)) was 109 % of control, the T/C (dose: 25.0 mg/kg/injection, schedule: Q01DX009 (ip), vehicle: Klucel (hydroxypropylcellulose) (HPC)) was 109 % of control and the T/C (dose: 25.0 mg/kg/injection, schedule: Q04DX003 (ip), vehicle: Klucel (hydroxypropylcellulose) (HPC)) was 100 % of control and 122 % of control. The T/C [1] was 109 % of control, the T/C (dose: 75.0 mg/kg/injection, schedule: Q01DX001 (ip), vehicle: Klucel (hydroxypropylcellulose) (HPC)) was 112 % of control and the T/C [2] was 104 % of control and 105 % of control. For the same molecule, the T/C (dose: 150.0 mg/kg/injection, schedule: Q01DX001 (ip), vehicle: Klucel (hydroxypropylcellulose) (HPC)) was 100 % of control.
With `COc1cc2c(cc1OC)C(CNC(=O)/C=C/c1ccccc1)C2` (configuration not stated) the T/C [3] was 115 % of control, the T/C [4] was 110 % of control and the T/C [5] was 120 % of control.
In the case of `COC(=O)c1cc(O)c(O)c(OC)c1`, the T/C [6] is reported as 111 % of control, the T/C [7] is reported as 101 % of control and the T/C [8] is reported as 86 % of control. For the same molecule, the T/C [9] was 95 % of control.
For `O=C(OC(=O)c1cccc(-c2ccccc2)c1)c1cccc(-c2ccccc2)c1`, the T/C (dose: 50.0 mg/kg/injection, schedule: Q01DX009 (ip), vehicle: Klucel (hydroxypropylcellulose) (HPC)) was 104 % of control, the T/C [10] was 95 % of control and the T/C [11] was 95 % of control.
`Cc1cc(O)c(NCCCN(C)C)c2c(=O)c3ccccc3sc12` was tested, and the T/C [7] was 108 % of control and the T/C [9] was 115 % of control.
`O=c1ccc2cc(-c3ccncc3)cnc2[nH]1` was tested, and the T/C (dose: 100.0 mg/kg/injection, schedule: Q04DX002 (ip), vehicle: saline with Tween-80) was 108 % of control.
In the case of `O=[N+]([O-])c1cc([N+](=O)[O-])c(Br)cc1Cl`, the T/C (dose: 5.0 mg/kg/injection, schedule: Q01DX009 (ip), vehicle: Klucel (hydroxypropylcellulose) (HPC)) is reported as 101 % of control, the T/C (dose: 10.0 mg/kg/injection, schedule: Q01DX009 (ip), vehicle: Klucel (hydroxypropylcellulose) (HPC)) is reported as 110 % of control and the T/C (dose: 20.0 mg/kg/injection, schedule: Q01DX009 (ip), vehicle: Klucel (hydroxypropylcellulose) (HPC)) is reported as 112 % of control.
In the case of `CC1(C)N=C(N)N=C(N)N1c1ccc(CNC(=O)Nc2ccc(S(=O)(=O)F)cc2)c(Cl)c1`, the T/C (dose: 16.5 mg/kg/injection, schedule: Q01DX009 (ip), vehicle: saline with Tween-80) is reported as 176 % of control, the T/C [6] is reported as 188 % of control and the T/C [12] is reported as 185 % of control. The T/C (dose: 88.0 mg/kg/injection, schedule: Q04DX003 (ip), vehicle: saline with Tween-80) was 186 % of control and the T/C (dose: 132.0 mg/kg/injection, schedule: Q04DX003 (ip), vehicle: saline with Tween-80) was 157 % of control.
`NC(=O)c1ccc(C(N)=O)cc1` was tested, and the T/C [13] was 100 % of control, the T/C [14] was 104 % of control and the T/C [15] was 100 % of control.
In the case of `CC1=CC(O)(C2(O)C=C(C)CC(C)(C)C2)CC(C)(C)C1` (configuration not stated), the T/C (dose: 100.0 mg/kg/injection, schedule: Q01DX009 (ip), vehicle: other) is reported as 94 % of control, the T/C (dose: 200.0 mg/kg/injection, schedule: Q01DX009 (ip), vehicle: other) is reported as 108 % of control and the T/C (dose: 400.0 mg/kg/injection, schedule: Q01DX009 (ip), vehicle: other) is reported as 103 % of control.
`CCNC(C)(C)C(SSS)c1cccs1` (configuration not stated) was tested, and the T/C [8] was 112 % of control, the T/C [13] was 100 % of control and the T/C [9] was 120 % of control. The T/C [14] was 122 % of control and the T/C [15] was 118 % of control.
For `CC(/C=C/c1ccccc1)=N\NC(=O)CN(C)C`, the T/C [16] was 94 % of control and the T/C [17] was 97 % of control.
For `N#CCCCCCl`, the T/C (dose: 25.0 mg/kg/injection, schedule: Q01DX001 (ip), vehicle: saline) was 90 % of control, the T/C (dose: 50.0 mg/kg/injection, schedule: Q01DX001 (ip), vehicle: saline) was 100 % of control and the T/C [18] was 95 % of control and 100 % of control.
With `N=[N+]=CC(=O)CC(N)C(=O)O` (configuration not stated) the T/C (dose: 100.0 mg/kg/injection, schedule: Q01DX001 (ip), vehicle: saline sonified) was 95 % of control, the T/C (dose: 200.0 mg/kg/injection, schedule: Q01DX001 (ip), vehicle: saline sonified) was 86 % of control and the T/C (dose: 400.0 mg/kg/injection, schedule: Q01DX001 (ip), vehicle: saline sonified) was 95 % of control.
With `COc1ccc(CCNC(=O)/C=C\C(=O)O)cc1OC` the T/C [8] was 95 % of control, the T/C [9] was 95 % of control and the T/C [19] was 100 % of control.
In the case of `CCO/C(N)=N/OS(=O)(=O)c1ccccc1`, the T/C [13] is reported as 99 % of control, the T/C [14] is reported as 96 % of control and the T/C [15] is reported as 98 % of control.
In the case of `O=S1(=O)CC(S(=O)(=O)O)C(S(=O)(=O)O)C1` (configuration not stated), the T/C [1] is reported as 100 % of control, the T/C [18] is reported as 108 % of control and the T/C [2] is reported as 100 % of control. The T/C (dose: 200.0 mg/kg/injection, schedule: Q01DX001 (ip), vehicle: saline) was 100 % of control, the T/C [20] was 100 % of control and the T/C (dose: 400.0 mg/kg/injection, schedule: Q01DX001 (ip), vehicle: saline) was 108 % of control.
In the case of `COc1ccc(-n2c(=O)c(N=Nc3ccccc3OC)c(O)n(-c3ccccc3C)c2=S)cc1`, the T/C [3] is reported as 111 % of control, the T/C [4] is reported as 100 % of control and the T/C [5] is reported as 88 % of control.
In the case of `CS(=O)(=O)n1c(CBr)nc2ccccc21`, the T/C (dose: 25.0 mg/kg/injection, schedule: Q04DX003 (ip), vehicle: saline sonified) is reported as 109 % of control, the T/C (dose: 50.0 mg/kg/injection, schedule: Q04DX003 (ip), vehicle: saline sonified) is reported as 118 % of control and the T/C (dose: 100.0 mg/kg/injection, schedule: Q04DX003 (ip), vehicle: saline sonified) is reported as 122 % of control.
For `OC(CI)C(O)C(O)C(O)CI` (configuration not stated), the T/C [8] was 108 % of control, the T/C [17] was 102 % of control and the T/C [9] was 102 % of control. For the same molecule, the T/C [21] was 109 % of control, the T/C (dose: 300.0 mg/kg/injection, schedule: Q01DX009 (ip), vehicle: saline with Tween-80) was 150 % of control and the T/C [19] was 122 % of control. The T/C (dose: 400.0 mg/kg/injection, schedule: Q01DX009 (ip), vehicle: saline) was 109 % of control and the T/C (dose: 600.0 mg/kg/injection, schedule: Q01DX009 (ip), vehicle: saline) was 118 % of control.
`S=C(c1ccco1)N1CCOCC1` was tested, and the T/C [12] was 100 % of control, the T/C (dose: 75.0 mg/kg/injection, schedule: Q01DX009 (ip), vehicle: saline with Tween-80) was 104 % of control and the T/C (dose: 150.0 mg/kg/injection, schedule: Q01DX009 (ip), vehicle: saline with Tween-80) was 118 % of control.
With `O=C(COc1ccc(Cl)cc1Cl)Oc1c(Cl)c(Cl)c(Cl)c(Cl)c1Cl` the T/C (dose: 50.0 mg/kg/injection, schedule: Q04DX003 (ip), vehicle: saline with Tween-80) was 91 % of control and the T/C [13] was 87 % of control.
`[Cl][Pb]([Cl])([c]1ccccc1)[c]1ccccc1` was tested, and the T/C [6] was 91 % of control, the T/C [7] was 87 % of control and the T/C [8] was 97 % of control.
For `C#CCOCC1CN(C)C(=O)O1` (configuration not stated), the T/C (dose: 25.0 mg/kg/injection, schedule: Q01DX009 (ip), vehicle: saline) was 104 % of control, the T/C [16] was 100 % of control and the T/C (dose: 50.0 mg/kg/injection, schedule: Q04DX003 (ip), vehicle: saline) was 91 % of control. For the same molecule, the T/C [17] was 100 % of control, the T/C [21] was 100 % of control and the T/C (dose: 200.0 mg/kg/injection, schedule: Q04DX003 (ip), vehicle: saline) was 100 % of control.
With `CN1C(=O)C(C2Sc3ccccc3NC2=O)SC1=S` (configuration not stated) the T/C [7] was 102 % of control, the T/C [8] was 104 % of control and the T/C [9] was 99 % of control.
With `COC(=O)C1=C(C)NC(=O)NC1c1ccccc1` (configuration not stated) the T/C (dose: 100.0 mg/kg/injection, schedule: Q01DX001 (ip), vehicle: saline with Tween-80) was 100 % of control, the T/C (dose: 200.0 mg/kg/injection, schedule: Q01DX001 (ip), vehicle: saline with Tween-80) was 100 % of control and the T/C (dose: 400.0 mg/kg/injection, schedule: Q01DX001 (ip), vehicle: saline with Tween-80) was 100 % of control.
In the case of `Nc1ccccc1SC1CC(=O)N(c2ccccc2)C1=O` (configuration not stated), the T/C [3] is reported as 100 % of control, the T/C [10] is reported as 116 % of control and the T/C [2] is reported as 100 % of control. The T/C [4] was 95 % of control, the T/C [11] was 122 % of control and the T/C [20] was 95 % of control. The T/C [5] was 95 % of control, the T/C (dose: 400.0 mg/kg/injection, schedule: Q01DX009 (ip), vehicle: Klucel (hydroxypropylcellulose) (HPC)) was 105 % of control and the T/C (dose: 400.0 mg/kg/injection, schedule: Q04DX003 (ip), vehicle: Klucel (hydroxypropylcellulose) (HPC)) was 95 % of control.

Reference: PubChem BioAssay AID328 (DTP/NCI, 2004)
